Values joined by “and” are separate entries in the source; they are usually repeats but may differ in a detail not shown here. Equal values may be shown once.
Assays:
[1] = tested on: Mycoplasma pneumoniae strain M129 (ATCC 29342); experiment: Time-kill curves; format: cell-based; parameters: M. pneumoniae count in time-kill curve: unit not given here
How it was run: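 Strain grown at 37 °C, 5% CO2 in modified SP-4 broth (pH 7.4, 20% FBS). Cultures incubated 72 h, sampled every 12 h, 10-fold serially diluted and plated on SP-4 agar; colonies counted after 7 d. Three repeats.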

[2] = tested on: Mycoplasma pneumoniae-infected mice (lung tissue); experiment: Histopathological assessment of lung tissue (HPS, response and recovery rates) in M. pneumoniae-infected mice; format: in vivo, BALB/c mice; parameters: HPS value (mean) / HPS: scale not given here; conditions: for HPS: individual mice
Protocol: Adult BALB/c mice (20–22 g) were divided into a control group, a positive group, and compound 16C groups at low (20 mg/kg), medium (40 mg/kg), and high-dose (80 mg/kg) levels and oral and intramuscular tiamulin treatment groups (40 mg/kg). We formulated the above dose range based on the dose at which tiamulin was approved for injection (10–20 mg/kg) and the dose previously reported (45 mg/kg) ([EMA, 1999]; [Xiao et al., 2016]). In summary, we selected similar doses for compound 16C in vivo study. 40 mg/kg was used as an intermediate value, one-half of it as a low dose, and two times of it as a high dose. To prepare the challenge solution, logarithmic phase culture suspensions were centrifuged at 1700 g for 10 min, and the pellets were suspended in sterile PBS to obtain 1 × 10^9 CFU/mL. Before the challenge, mice were anesthetized with tribromoethanol (250 mg/kg, IP). Mice in the control groups were intratracheally inoculated with sterile PBS, whereas mice in the other groups were intratracheally challenged with 50 μL (1 × 10^9 CFU/mL) M. pneumoniae suspension once a day for 3 days. Compound 16C and tiamulin (tiamulin-IM group) dissolved using the method mentioned in pharmacokinetic studies, and the tiamulin fumarate soluble powder was dissolved in ddH2O for oral administration. After the final challenge, antibiotics were administered at low, medium, and high-dose levels (see above) at 10 a.m. and 10 p.m. daily for 4 consecutive days. Normal saline containing 5% DMSO and 5% Tween-80 was administered as control and positive groups by thigh intramuscular injection. To compare the efficacy of compound 16C and tiamulin under the same route of administration, we used the original tiamulin for intramuscular administration in the same formulation. On the other hand, tiamulin fumarate soluble powder, approved for oral administration to treat animal mycoplasma diseases in China, was administered to mice by gavage. Based on a clinical study of lefamulin in community-acquired bacterial pneumonia (CABP), subjects were administered twice a day and the 96 ± 24 h of starting treatment was an essential point for early clinical response (ECR) ([Paukner et al., 2022]). We therefore stopped treatment at 96 h and sampled at 192 h to explore whether the disease worsened after cessation of treatment. Bronchoalveolar lavage fluid (BALF) and lungs were collected at 0, 96, 192 h (Samples of 0 h were collected before starting treatment, and mice were fed ad libitum without drug treatment during 96–192 h) after the first dose, BALF for cytokine and cytological analysis and lung for histopathological evaluation.
Lung tissues were collected at 0, 96, and 192 h following drug administration. Lungs were collected from 6 mice in each group at 96 h and 13–15 mice in each group at 192 h. In addition, the lungs of 8 untreated infected mice were taken at 0 h as initial controls. Lung tissues were fixed in 4% paraformaldehyde, and whole-mount sections of paraffin-embedded lungs were stained with hematoxylin and eosin (H&E). The histopathologic score (HPS) was determined according to published protocols by a single pathologist who was unaware of the treatment status and groups of the animals ([Cimolai et al., 1992]). The HPS was based on individual grading of peribronchiolar/bronchial infiltrate, bronchiolar/bronchial luminal exudate, perivascular infiltrate, and parenchymal pneumoniae.

[3] = M. pneumoniae-infected mice, 20mg/kg, intramuscular, n=13-15
[4] = M. pneumoniae-infected mice, 40mg/kg, intramuscular, n=13-15
[5] = M. pneumoniae-infected mice, 80mg/kg, intramuscular, n=13-15
[6] = compound 16C 20 mg/kg IM, 192 h
[7] = compound 16C 40 mg/kg IM, 192 h
[8] = compound 16C 40 mg/kg IM, from HPS at 192 h
[9] = compound 16C 80 mg/kg IM, 192 h
[10] = compound 16C 80 mg/kg IM, from HPS at 192 h

## C=CC1(C)CC(OC(=O)CSc2ccc(NC(=O)Cc3ccc([N+](=O)[O-])cc3)cc2)C2(C)C(C)CCC3(CCC(=O)C32)C(C)C1O (stereo not drawn) [compound 16C, 22–((4-((4-nitrophenyl)acetamido)phenyl)thio)deoxypleuromutilin]
[1]; 1×MIC, time 0
  M. pneumoniae count in time-kill curve: 7.809
[1]; 1×MIC, time 12
  M. pneumoniae count in time-kill curve: 7.011
[1]; 1×MIC, time 24
  M. pneumoniae count in time-kill curve: 6.5256
[1]; 1×MIC, time 36
  M. pneumoniae count in time-kill curve: 6.341
[1]; 1×MIC, time 48
  M. pneumoniae count in time-kill curve: 6.63
[1]; 1×MIC, time 60
  M. pneumoniae count in time-kill curve: 6.334
[1]; 1×MIC, time 72
  M. pneumoniae count in time-kill curve: 5.5397
[1]; 1–4 × MIC, 72 h
  reduction of bacterial counts: 2.27–2.60 log10 CFU/mL
[1]; 2×MIC, time 0
  M. pneumoniae count in time-kill curve: 7.809
[1]; 2×MIC, time 12
  M. pneumoniae count in time-kill curve: 6.901
[1]; 2×MIC, time 24
  M. pneumoniae count in time-kill curve: 6.35
[1]; 2×MIC, time 36
  M. pneumoniae count in time-kill curve: 6.074
[1]; 2×MIC, time 48
  M. pneumoniae count in time-kill curve: 6.197
[1]; 2×MIC, time 60
  M. pneumoniae count in time-kill curve: 5.9
[1]; 2×MIC, time 72
  M. pneumoniae count in time-kill curve: 5.211
[1]; 4×MIC, time 0
  M. pneumoniae count in time-kill curve: 7.247
[1]; 4×MIC, time 12
  M. pneumoniae count in time-kill curve: 6.539
[1]; 4×MIC, time 24
  M. pneumoniae count in time-kill curve: 6.026
[1]; 4×MIC, time 36
  M. pneumoniae count in time-kill curve: 5.763
[1]; 4×MIC, time 48
  M. pneumoniae count in time-kill curve: 5.628
[1]; 4×MIC, time 60
  M. pneumoniae count in time-kill curve: 5.61
[1]; 4×MIC, time 72
  M. pneumoniae count in time-kill curve: 4.889
[1]; 8×MIC, time 0
  M. pneumoniae count in time-kill curve: 7.429
[1]; 8×MIC, time 12
  M. pneumoniae count in time-kill curve: 7.7
[1]; 8×MIC, time 24
  M. pneumoniae count in time-kill curve: 5.719
[1]; 8×MIC, time 36
  M. pneumoniae count in time-kill curve: 4.474
[1]; 8×MIC, time 48
  M. pneumoniae count in time-kill curve: 3.799
[1]; 8×MIC, time 60
  M. pneumoniae count in time-kill curve: 3
[1]; 8×MIC, time 72
  M. pneumoniae count in time-kill curve: 3.001
[1]; 16×MIC, time 0
  M. pneumoniae count in time-kill curve: 7.247
[1]; 16×MIC, time 12
  M. pneumoniae count in time-kill curve: 7.508
[1]; 16×MIC, time 24
  M. pneumoniae count in time-kill curve: 4.094
[1]; 16×MIC, time 36
  M. pneumoniae count in time-kill curve: 3.774
[1]; 16×MIC, time 48
  M. pneumoniae count in time-kill curve: 3.36
[1]; 16×MIC, time 60
  M. pneumoniae count in time-kill curve: 2.9656
[1]; 16×MIC, time 72
  M. pneumoniae count in time-kill curve: 2.848
[1]; 32×MIC, time 0
  M. pneumoniae count in time-kill curve: 7.065
[1]; 32×MIC, time 12
  M. pneumoniae count in time-kill curve: 6.342
[1]; 32×MIC, time 24
  M. pneumoniae count in time-kill curve: 6.583
[1]; 32×MIC, time 36
  M. pneumoniae count in time-kill curve: 4.407
[1]; 32×MIC, time 48
  M. pneumoniae count in time-kill curve: 3.894
[1]; 32×MIC, time 60
  M. pneumoniae count in time-kill curve: 3.568
[1]; 32×MIC, time 72
  M. pneumoniae count in time-kill curve: 2.774
[1]; 64 × MIC, 72 h exposure
  number of organisms (decreased to the LOD): 2 log10 CFU/mL
[1]; 64×MIC, time 0
  M. pneumoniae count in time-kill curve: 7.065
[1]; 64×MIC, time 12
  M. pneumoniae count in time-kill curve: 5.938
[1]; 64×MIC, time 24
  M. pneumoniae count in time-kill curve: 5.724
[1]; 64×MIC, time 36
  M. pneumoniae count in time-kill curve: 3.5819
[1]; 64×MIC, time 48
  M. pneumoniae count in time-kill curve: 3.199
[1]; 64×MIC, time 60
  M. pneumoniae count in time-kill curve: 2.961
[1]; 64×MIC, time 72
  M. pneumoniae count in time-kill curve: 2
[1]; static time-kill, 72 h
  concentration at which bactericidal effect was achieved: ≥ 8 × MIC
[1]; ≥ 8×MIC, 72 h
  reduction of bacterial counts: > 3 log10 CFU/mL
[2]; [3]
  Recovery: 20.00%
  Response: 93.33%
[2]; [4]
  Recovery: 35.7%
  Response: 100%
[2]; [5]
  Recovery: 50%
  Response: 100%
[2]; compound 16C 20 mg/kg IM, 96 h
  HPS value (mean): 1.08
  HPS: 0.5 and 1 and 1.5
[2]; [6]
  HPS value (mean): 1
  HPS: 1 and 0 and 4 and 0.5 and 1.5
[2]; compound 16C 20 mg/kg IM, from HPS at 192 h (HPS reduced to 0)
  Recovery: 20.00%
[2]; compound 16C 20 mg/kg IM, from HPS at 192 h (HPS reduced to 0), listed as Compound16C
  Recovery: 20%
[2]; compound 16C 20 mg/kg IM, from HPS at 192 h, n = 13–15
  Response: 93.33%
[2]; compound 16C 40 mg/kg IM, 96 h
  HPS value (mean): 1
  HPS: 1 and 1.5 and 0
[2]; [7]
  HPS value (mean): 0.46
  HPS: 0.5 and 0 and 2 and 1
[2]; [8]
  Recovery: 35.7%
  Response: 100%
[2]; compound 16C 80 mg/kg IM, 96 h
  HPS value (mean): 0.75
  HPS: 0.5 and 0 and 1
[2]; [9]
  HPS value (mean): 0.43
  HPS: 0 and 0.5 and 1 and 1.5
[2]; [10]
  Recovery: 50%
  Response: 100%

Source: article PMC11695783 (Frontiers in Pharmacology, 2024)
